Columns and labels:
Assay type in all cases: in vivo
[1] = test system: barnyardgrass (Echinochloa crus-galli); experiment: Test C postemergence; details: Echinochloa crus-galli, post-emergence, Postemergence, scale 0 to 100, read-out: Plant response rating, Barnyardgrass
How it was run: (§1)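 Visual ratings (0 none to 100 complete control) were made 13 to 15 days after treatment, relative to controls. Test chemicals, formulated in a non-phytotoxic solvent mixture with surfactant, were applied in the greenhouse preemergence to seeded loam-sand soil or postemergence to plants 2 to 18 cm tall.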

[2] = test system: giant foxtail (Setaria faberii); experiment: Test C postemergence; details: Setaria faberi, post-emergence, 336 h, Postemergence, scale 0 to 100, read-out: Plant response rating, Foxtail, Giant
How it was run: as §1

[3] = test system: winter wheat (Triticum aestivum); experiment: Test C postemergence; details: Triticum aestivum, post-emergence, 336 h, Postemergence, scale 0 to 100, read-out: Plant response rating, Wheat
How it was run: as §1

[4] = test system: blackgrass (Alopecurus myosuroides); experiment: Test C postemergence; details: Alopecurus myosuroides, post-emergence, 336 h, Postemergence, scale 0 to 100, read-out: Plant response rating, Blackgrass
How it was run: as §1

[5] = test system: johnsongrass (Sorghum halepense); experiment: Test C postemergence; details: Sorghum halepense, post-emergence, 336 h, Postemergence, scale 0 to 100, read-out: Plant response rating, Johnsongrass
How it was run: as §1

soybean (Glycine max) = experiment: Test C postemergence; details: Glycine max, post-emergence, Postemergence, scale 0 to 100, read-out: Plant response rating, Soybean
How it was run: as §1

[6] = test system: ragweed (common ragweed, Ambrosia elatior); experiment: Test C postemergence; details: Ambrosia artemisiifolia, post-emergence, 336 h, Postemergence, scale 0 to 100, read-out: Plant response rating, Ragweed
How it was run: as §1

[7] = test system: Italian ryegrass (Lolium multiflorum); experiment: Test C postemergence; details: Lolium multiflorum, post-emergence, 336 h, Postemergence, scale 0 to 100, read-out: Plant response rating, Ryegrass, Italian
How it was run: as §1

corn (Zea mays) = experiment: Test C postemergence; details: Zea mays, post-emergence, 336 h, Postemergence, scale 0 to 100
How it was run: as §1

[8] = test system: velvetleaf (Abutilon theophrasti); experiment: Test C postemergence; details: Abutilon theophrasti, post-emergence, Postemergence, scale 0 to 100, read-out: Plant response rating, Velvetleaf
How it was run: as §1

[9] = test system: waterhemp (common waterhemp, Amaranthus rudis); experiment: Test C postemergence; details: Amaranthus tuberculatus, post-emergence, Postemergence, scale 0 to 100, read-out: Plant response rating, Waterhemp
How it was run: as §1

[10] = test system: large (Lg) crabgrass (Digitaria sanguinalis); experiment: Test C postemergence; details: Digitaria sanguinalis, post-emergence, 336 h, Postemergence, scale 0 to 100, read-out: Plant response rating, Crabgrass, Large
How it was run: as §1

[11] = test system: yellow nutsedge (Cyperus esculentus); experiment: Test C postemergence; details: Cyperus, post-emergence, 336 h, Postemergence, scale 0 to 100, read-out: Plant response rating, Nutsedge, Yellow
How it was run: as §1

wild oat (Avena fatua) = experiment: Test C postemergence; details: Avena fatua, post-emergence, Postemergence, scale 0 to 100, read-out: Plant response rating, Oat, Wild
How it was run: as §1

[12] = test system: lambsquarters (Chenopodium album); experiment: Test C postemergence; details: Chenopodium album, post-emergence, 336 h, Postemergence, scale 0 to 100, read-out: Plant response rating, Lambsquarters
How it was run: as §1

[13] = test system: oilseed rape (Brassica napus); experiment: Test C postemergence; details: Brassica napus, post-emergence, Postemergence, scale 0 to 100, read-out: Plant response rating, Oilseed Rape
How it was run: as §1

[14] = test system: galium (catchweed bedstraw, Galium aparine); experiment: Test C postemergence; details: Galium, post-emergence, 336 h, Postemergence, scale 0 to 100, read-out: Plant response rating, Galium
How it was run: as §1

[15] = test system: chickweed (common chickweed, Stellaria media); experiment: Test C postemergence; details: Stellaria media, post-emergence, Postemergence, scale 0 to 100, read-out: Plant response rating, Chickweed
How it was run: as §1

[16] = test system: morningglory (Ipomoea coccinea); experiment: Test C postemergence; details: Ipomoea, post-emergence, 336 h, Postemergence, scale 0 to 100, read-out: Plant response rating, Morningglory
How it was run: as §1

[17] = test system: barnyardgrass (Echinochloa crus-galli); experiment: Test C preemergence; details: Echinochloa crus-galli, pre-emergence, read-out: Plant response rating, Barnyardgrass
How it was run: as §1

[18] = test system: johnsongrass (Sorghum halepense); experiment: Test C preemergence; details: Sorghum halepense, pre-emergence, 336 h, scale 0 to 100, read-out: Plant response rating, Johnsongrass
How it was run: as §1

[19] = test system: galium (catchweed bedstraw, Galium aparine); experiment: Test C preemergence; details: Galium, pre-emergence, 336 h, scale 0 to 100, read-out: Plant response rating, Galium
How it was run: as §1

FC(F)c1cccc(Oc2ncc(Cl)cn2)c1Oc1ncc(Cl)cn1 [Compound 46, 2,2′-[[3-(difluoromethyl)-1,2-phenylene]bis(oxy)]bis[5-chloropyrimidine]]
0%: pest or weed control at 16 g/ha ([1]; 16 g ai/ha) | pest or weed control at 16 g/ha ([4]; 16 g ai/ha) | pest or weed control at 31 g/ha ([4]; 31 g ai/ha) | pest or weed control at 62 g/ha ([4]; 62 g ai/ha) | pest or weed control at 31 g/ha ([11]; 31 g ai/ha)
30%: plant injury at 31 g/ha ([13]; 31 g ai/ha)
40%: pest or weed control at 31 g/ha ([15]; 31 g ai/ha) | pest or weed control at 31 g/ha ([18]; 31 g ai/ha, preemergence)
5%: pest or weed control at 31 g/ha ([1]; 31 g ai/ha) | pest or weed control at 62 g/ha ([1]; 62 g ai/ha) | pest or weed control at 125 g/ha ([1]; 125 g ai/ha) | plant injury at 31 g/ha ([3]; 31 g ai/ha) | plant injury at 62 g/ha ([3]; 62 g ai/ha) | pest or weed control at 125 g/ha ([4]; 125 g ai/ha) | pest or weed control at 16 g/ha ([5]; 16 g ai/ha) | pest or weed control at 62 g/ha ([5]; 62 g ai/ha) | pest or weed control at 125 g/ha ([5]; 125 g ai/ha) | pest or weed control at 31 g/ha ([7]; 31 g ai/ha) | pest or weed control at 62 g/ha ([7]; 62 g ai/ha) | Corn plant response rating (crop injury, 0 = no effect, 100 = complete kill) at 16 g/ha (corn (Zea mays); 16 g ai/ha) | Corn plant response rating (crop injury, 0 = no effect, 100 = complete kill) at 31 g/ha (corn (Zea mays); 31 g ai/ha) | Corn plant response rating (crop injury, 0 = no effect, 100 = complete kill) at 62 g/ha (corn (Zea mays); 62 g ai/ha) | pest or weed control at 125 g/ha ([9]; 125 g ai/ha) | pest or weed control at 16 g/ha ([10]; 16 g ai/ha) | pest or weed control at 31 g/ha ([10]; 31 g ai/ha) | pest or weed control at 62 g/ha ([11]; 62 g ai/ha) | pest or weed control at 125 g/ha ([11]; 125 g ai/ha) | pest or weed control at 31 g/ha (wild oat (Avena fatua); 31 g ai/ha) | pest or weed control at 62 g/ha (wild oat (Avena fatua); 62 g ai/ha) | pest or weed control at 16 g/ha ([18]; Preemergence, 16 g ai/ha) | pest or weed control at 16 g/ha ([19]; Preemergence, 16 g ai/ha)
98%: pest or weed control at 125 g/ha ([12]; 125 g ai/ha)
100%: pest or weed control at 62 g/ha ([17]; 62 g ai/ha, preemergence, scale 0 to 100) | pest or weed control at 125 g/ha ([17]; 125 g ai/ha, preemergence, scale 0 to 100) | pest or weed control at 125 g/ha ([18]; 125 g ai/ha, preemergence) | pest or weed control at 125 g/ha ([19]; 125 g ai/ha, preemergence)
15%: pest or weed control at 16 g/ha ([17]; Preemergence, 16 g ai/ha, scale 0 to 100 (0 no effect, 100 complete control))
65%: plant injury at 31 g/ha (soybean (Glycine max); 31 g ai/ha) | pest or weed control at 62 g/ha ([6]; 62 g ai/ha) | pest or weed control at 125 g/ha ([8]; 125 g ai/ha) | plant injury at 125 g/ha ([13]; 125 g ai/ha) | pest or weed control at 125 g/ha ([14]; 125 g ai/ha)
75%: plant injury at 62 g/ha (soybean (Glycine max); 62 g ai/ha) | pest or weed control at 125 g/ha ([15]; 125 g ai/ha) | pest or weed control at 62 g/ha ([18]; 62 g ai/ha, preemergence)
50%: pest or weed control at 62 g/ha ([2]; 62 g ai/ha) | pest or weed control at 31 g/ha ([6]; 31 g ai/ha) | pest or weed control at 31 g/ha ([9]; 31 g ai/ha) | plant injury at 62 g/ha ([13]; 62 g ai/ha)
55%: pest or weed control at 62 g/ha ([8]; 62 g ai/ha) | pest or weed control at 16 g/ha ([12]; 16 g ai/ha)
70%: pest or weed control at 62 g/ha ([9]; 62 g ai/ha) | pest or weed control at 31 g/ha ([12]; 31 g ai/ha) | pest or weed control at 31 g/ha ([17]; 31 g ai/ha, preemergence, scale 0 to 100)
95%: pest or weed control at 125 g/ha ([6]; 125 g ai/ha) | pest or weed control at 62 g/ha ([19]; 62 g ai/ha, preemergence)
60%: pest or weed control at 16 g/ha ([14]; 16 g ai/ha) | pest or weed control at 31 g/ha ([14]; 31 g ai/ha) | pest or weed control at 62 g/ha ([14]; 62 g ai/ha) | pest or weed control at 62 g/ha ([15]; 62 g ai/ha)
20%: pest or weed control at 31 g/ha ([2]; 31 g ai/ha)
90%: pest or weed control at 125 g/ha ([16]; 125 g ai/ha)
35%: pest or weed control at 16 g/ha ([2]; 16 g ai/ha) | pest or weed control at 16 g/ha ([15]; 16 g ai/ha)
80%: plant injury at 125 g/ha (soybean (Glycine max); 125 g ai/ha) | pest or weed control at 31 g/ha ([16]; 31 g ai/ha)
10%: plant injury at 125 g/ha ([3]; 125 g ai/ha) | pest or weed control at 31 g/ha ([5]; 31 g ai/ha) | pest or weed control at 125 g/ha ([7]; 125 g ai/ha) | Corn plant response rating (crop injury, 0 = no effect, 100 = complete kill) at 125 g/ha (corn (Zea mays); 125 g ai/ha) | pest or weed control at 62 g/ha ([10]; 62 g ai/ha) | pest or weed control at 125 g/ha ([10]; 125 g ai/ha) | pest or weed control at 125 g/ha (wild oat (Avena fatua); 125 g ai/ha)
25%: pest or weed control at 125 g/ha ([2]; 125 g ai/ha) | pest or weed control at 31 g/ha ([8]; 31 g ai/ha)
85%: pest or weed control at 62 g/ha ([12]; 62 g ai/ha) | pest or weed control at 62 g/ha ([16]; 62 g ai/ha) | pest or weed control at 31 g/ha ([19]; 31 g ai/ha, preemergence)
